ChEMBL document CHEMBL1201862, “PubChem BioAssay data set” (2004)
The source made the active and inactive calls.

Assays:
[1] = biological target: Eukaryotic translation initiation factor 4H (Homo sapiens, UniProt Q15056); experiment: eIF4H binding inhibition – biochemical, uHTS, fluorescence polarization, translation initiation inhibitor project, primary screen (AID 2012)
[2] = biological target: Polyadenylate-binding protein 1 (Homo sapiens, UniProt P11940); experiment: blockers of PABP interaction with poly(A) – biochemical, fluorescence polarization, […] (AID 2014)
[3] = biological target: T1, Mannose-6-phosphate isomerase (Homo sapiens, UniProt P34949); experiment: MPI enzyme activity inhibition – biochemical, fluorescence intensity, coupled assay, primary screen (AID 1209)
T1 sequence (P34949 whole entry): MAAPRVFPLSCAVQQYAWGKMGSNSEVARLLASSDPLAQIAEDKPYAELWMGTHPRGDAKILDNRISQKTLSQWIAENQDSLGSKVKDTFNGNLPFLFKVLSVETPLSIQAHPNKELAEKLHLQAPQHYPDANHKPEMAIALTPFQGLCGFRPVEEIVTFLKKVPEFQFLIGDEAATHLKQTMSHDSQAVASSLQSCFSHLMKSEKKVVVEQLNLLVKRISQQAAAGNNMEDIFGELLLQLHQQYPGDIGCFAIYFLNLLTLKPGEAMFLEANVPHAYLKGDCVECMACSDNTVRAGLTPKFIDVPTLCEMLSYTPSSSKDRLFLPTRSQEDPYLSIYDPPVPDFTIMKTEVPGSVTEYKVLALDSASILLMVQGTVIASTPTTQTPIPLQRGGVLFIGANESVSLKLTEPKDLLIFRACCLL

[4] = microbe, parasite or virus in culture; format: functional; details: Mycobacterium tuberculosis
[5] = Vero E6 cell cytotoxicity, dose response, cytotoxicity control for non-replicating M. tuberculosis project, secondary assay (AID 492998); format: functional, VeroE6; details: Vero C1008
[6] = THP-1 cell cytotoxicity, dose response, cytotoxicity control for non-replicating M. tuberculosis project (AID 489025); format: functional
[7] = cells; format: functional
[8] = biological target: Peroxisome proliferator-activated receptor gamma/Nuclear receptor corepressor 2 (Homo sapiens, UniProt P37231+Q9Y618); format: functional
[9] = biological target: Photoreceptor-specific nuclear receptor (Homo sapiens, UniProt Q9Y5X4); format: functional;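 also: potency for compounds that break the NR2E3 corepressor complex and count as activators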
[10] = biological target: Beta-galactosidase (Escherichia coli, UniProt Q8VNN2); experiment: detection-enzyme interference by beta-gal modulators – biochemical, E. coli enzyme, set 3, artefact control for CCR6 antagonist project, dose response (AID 504712); format: functional
[11] = biological target: Heat shock protein HSP 90-alpha (Homo sapiens, UniProt P07900); format: functional, organism-based
[12] = M. tuberculosis H37Rv growth inhibitors, H37Rv strain (AID 1626); format: functional
[13] = Luminescence Cell-Based Dose Response HTS to Identify Activators of Luciferase Translation or Activity in H4 […] Cells. [Related pubchem assays: 1829 (Project Summary), 1814 (Primary HTS)]; format: functional
[14] = test system: H4; experiment: Luminescence Cell-Based Dose Response HTS to Identify Activators of 5'UTR Stem-Loop Driven Prion Protein mRNA Translation in H4 Neuroglioblastoma Cells. [Related pubchem assays: 1829 (Project Summary), 1814 (Primary HTS)]; format: functional; details: Homo sapiens
[15] = Luminescence Cell-Based Dose Confirmation HTS to Identify Activators of 5'UTR Stem-Loop Driven Alpha-Synuclein mRNA Translation in H4 Neuroglioblastoma Cells. [Related pubchem assays: 1829 (Project Summary), 1814 (Primary HTS)]; format: functional
[16] = biological target: T2, 14-3-3 protein gamma (Homo sapiens, UniProt P61981); experiment: modulators of 14-3-3 gamma client binding – dose response (AID 711); format: functional
T2 sequence (P61981 whole entry): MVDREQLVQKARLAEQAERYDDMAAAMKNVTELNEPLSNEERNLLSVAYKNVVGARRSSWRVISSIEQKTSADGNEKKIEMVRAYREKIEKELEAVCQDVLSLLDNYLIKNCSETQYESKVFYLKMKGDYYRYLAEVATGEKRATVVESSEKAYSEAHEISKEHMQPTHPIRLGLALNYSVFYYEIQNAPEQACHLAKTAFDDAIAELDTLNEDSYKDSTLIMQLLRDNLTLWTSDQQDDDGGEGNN

[17] = biological target: T3, Bcl-2-like protein 10 (Homo sapiens, UniProt Q9HD36); experiment: Bcl-B/TR3 peptide binding disruption – biochemical, fluorescence polarization, FITC-TR3 peptide, selectivity assay for Bfl-1 inhibitor project, primary screen (AID 748);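 also: fluorescence polarization from a fluorescein-labelled TR3 peptide binding purified Bcl-B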
T3 sequence (Q9HD36 whole entry): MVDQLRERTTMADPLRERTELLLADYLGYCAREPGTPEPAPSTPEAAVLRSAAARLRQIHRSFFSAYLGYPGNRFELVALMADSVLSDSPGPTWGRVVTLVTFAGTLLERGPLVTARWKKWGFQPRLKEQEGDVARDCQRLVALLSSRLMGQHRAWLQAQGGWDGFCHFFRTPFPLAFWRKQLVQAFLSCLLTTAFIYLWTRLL

[18] = biological target: Peroxisome proliferator-activated receptor gamma/Nuclear receptor coactivator 2 (Homo sapiens, UniProt P37231); experiment: (§1) TR-FRET dose response biochemical High Throughput Screening assay for agonists of the steroid receptor coactivator 2 (SRC-2) recruitment by the peroxisome proliferator-activated receptor gamma (PPAR gamma): non-selective agonists. [Related pubchem assays: 1297, 1032 ]; format: functional
[19] = biological target: Peroxisome proliferator-activated receptor gamma/Nuclear receptor coactivator 3 (Homo sapiens, UniProt P37231); experiment: as §1, with “3 (SRC-3)” for “2 (SRC-2)”, “1301 (Confirmation screen.), 1048 (Primary screen.)]” for “1297, 1032 ]”; format: functional
[20] = biological target: Peroxisome proliferator-activated receptor gamma/Nuclear receptor coactivator 1 (Homo sapiens, UniProt P37231); experiment: as §1, with “1 (SRC-1)” for “2 (SRC-2)”, “assays (depositor defined):AID1300, AID1808, AID504735, AID631]” for “assays: 1297, 1032 ]”; format: protein assay
[21] = biological target: Prothrombin (Homo sapiens, UniProt P00734); experiment: Thrombin 1536 HTS Dose Response Confirmation. [Related pubchem assays: 1046 (Thrombin 1536 HTS; hits were confirmed in this assay)]; format: functional
[22] = biological target: T4, Estrogen receptor (Homo sapiens, UniProt P03372);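 also: potency for inhibiting coactivator peptide recruitment to the receptor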
T4 sequence (P03372 whole entry): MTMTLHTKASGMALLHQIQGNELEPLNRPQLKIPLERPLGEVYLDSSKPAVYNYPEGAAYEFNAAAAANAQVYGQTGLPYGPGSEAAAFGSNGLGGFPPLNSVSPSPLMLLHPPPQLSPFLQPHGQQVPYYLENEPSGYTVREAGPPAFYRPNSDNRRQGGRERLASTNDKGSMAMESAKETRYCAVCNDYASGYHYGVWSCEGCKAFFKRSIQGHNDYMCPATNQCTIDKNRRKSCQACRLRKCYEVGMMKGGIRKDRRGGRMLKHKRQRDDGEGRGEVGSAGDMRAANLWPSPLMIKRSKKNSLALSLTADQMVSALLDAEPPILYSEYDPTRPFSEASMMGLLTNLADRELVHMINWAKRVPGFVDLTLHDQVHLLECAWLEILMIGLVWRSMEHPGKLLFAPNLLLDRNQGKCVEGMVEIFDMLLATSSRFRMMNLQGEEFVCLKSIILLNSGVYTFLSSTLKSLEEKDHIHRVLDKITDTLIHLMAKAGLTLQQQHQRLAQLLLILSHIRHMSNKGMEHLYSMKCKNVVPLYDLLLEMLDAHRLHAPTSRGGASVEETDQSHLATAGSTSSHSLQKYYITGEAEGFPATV

[23] = A cytotoxicity screen of small molecule inhibitors of the PhoP region in Salmonella typhi identified in the primary screen. [Related pubchem assays: 1850, 1864, 1985 ]; format: functional
[24] = biological target: Induced myeloid leukemia cell differentiation protein Mcl-1 (Homo sapiens, UniProt Q07820); format: functional
[25] = biological target: T5, Phosphomannomutase 2 (Homo sapiens, UniProt O15305); experiment: Counter screen SAR assay for PMM2 inhibitors via a fluorescence intensity assay. [Related pubchem assays (depositor defined):AID1545, AID1574]
T5 sequence (O15305 whole entry): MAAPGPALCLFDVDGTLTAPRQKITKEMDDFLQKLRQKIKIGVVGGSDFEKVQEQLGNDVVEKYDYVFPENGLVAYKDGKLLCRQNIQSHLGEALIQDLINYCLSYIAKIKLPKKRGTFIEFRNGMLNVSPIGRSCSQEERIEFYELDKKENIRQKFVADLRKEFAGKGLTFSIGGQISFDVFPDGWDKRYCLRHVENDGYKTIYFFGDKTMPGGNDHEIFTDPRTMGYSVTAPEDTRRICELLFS

Sequence of Photoreceptor-specific nuclear receptor (Q9Y5X4 whole entry): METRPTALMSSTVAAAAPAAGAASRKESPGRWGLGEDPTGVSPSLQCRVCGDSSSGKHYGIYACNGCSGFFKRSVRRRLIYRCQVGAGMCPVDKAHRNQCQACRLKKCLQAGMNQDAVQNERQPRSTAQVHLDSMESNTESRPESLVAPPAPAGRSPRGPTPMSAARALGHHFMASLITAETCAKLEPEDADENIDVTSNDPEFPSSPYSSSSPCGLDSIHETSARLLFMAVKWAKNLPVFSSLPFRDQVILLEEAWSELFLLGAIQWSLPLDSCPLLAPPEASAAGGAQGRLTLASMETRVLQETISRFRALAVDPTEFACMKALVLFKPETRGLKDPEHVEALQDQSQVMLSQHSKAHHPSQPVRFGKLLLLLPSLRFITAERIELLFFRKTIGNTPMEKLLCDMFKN
Sequence of Peroxisome proliferator-activated receptor gamma/Nuclear receptor corepressor 2 (P37231 whole entry): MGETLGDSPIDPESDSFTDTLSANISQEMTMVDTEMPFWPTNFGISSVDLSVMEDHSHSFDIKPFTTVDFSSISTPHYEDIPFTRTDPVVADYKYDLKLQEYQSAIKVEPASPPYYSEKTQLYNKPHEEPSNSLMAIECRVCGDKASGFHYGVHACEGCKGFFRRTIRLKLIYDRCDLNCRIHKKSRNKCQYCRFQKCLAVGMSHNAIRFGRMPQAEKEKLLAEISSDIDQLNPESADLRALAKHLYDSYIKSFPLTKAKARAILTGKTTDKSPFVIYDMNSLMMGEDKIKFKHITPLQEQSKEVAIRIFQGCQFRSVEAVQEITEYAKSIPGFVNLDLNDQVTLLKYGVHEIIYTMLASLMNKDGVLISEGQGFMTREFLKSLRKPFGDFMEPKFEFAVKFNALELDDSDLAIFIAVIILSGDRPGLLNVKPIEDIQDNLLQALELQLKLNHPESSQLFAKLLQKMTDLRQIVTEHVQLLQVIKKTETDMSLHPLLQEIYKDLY
Sequence of Peroxisome proliferator-activated receptor gamma/Nuclear receptor corepressor 2 (Q9Y618 whole entry): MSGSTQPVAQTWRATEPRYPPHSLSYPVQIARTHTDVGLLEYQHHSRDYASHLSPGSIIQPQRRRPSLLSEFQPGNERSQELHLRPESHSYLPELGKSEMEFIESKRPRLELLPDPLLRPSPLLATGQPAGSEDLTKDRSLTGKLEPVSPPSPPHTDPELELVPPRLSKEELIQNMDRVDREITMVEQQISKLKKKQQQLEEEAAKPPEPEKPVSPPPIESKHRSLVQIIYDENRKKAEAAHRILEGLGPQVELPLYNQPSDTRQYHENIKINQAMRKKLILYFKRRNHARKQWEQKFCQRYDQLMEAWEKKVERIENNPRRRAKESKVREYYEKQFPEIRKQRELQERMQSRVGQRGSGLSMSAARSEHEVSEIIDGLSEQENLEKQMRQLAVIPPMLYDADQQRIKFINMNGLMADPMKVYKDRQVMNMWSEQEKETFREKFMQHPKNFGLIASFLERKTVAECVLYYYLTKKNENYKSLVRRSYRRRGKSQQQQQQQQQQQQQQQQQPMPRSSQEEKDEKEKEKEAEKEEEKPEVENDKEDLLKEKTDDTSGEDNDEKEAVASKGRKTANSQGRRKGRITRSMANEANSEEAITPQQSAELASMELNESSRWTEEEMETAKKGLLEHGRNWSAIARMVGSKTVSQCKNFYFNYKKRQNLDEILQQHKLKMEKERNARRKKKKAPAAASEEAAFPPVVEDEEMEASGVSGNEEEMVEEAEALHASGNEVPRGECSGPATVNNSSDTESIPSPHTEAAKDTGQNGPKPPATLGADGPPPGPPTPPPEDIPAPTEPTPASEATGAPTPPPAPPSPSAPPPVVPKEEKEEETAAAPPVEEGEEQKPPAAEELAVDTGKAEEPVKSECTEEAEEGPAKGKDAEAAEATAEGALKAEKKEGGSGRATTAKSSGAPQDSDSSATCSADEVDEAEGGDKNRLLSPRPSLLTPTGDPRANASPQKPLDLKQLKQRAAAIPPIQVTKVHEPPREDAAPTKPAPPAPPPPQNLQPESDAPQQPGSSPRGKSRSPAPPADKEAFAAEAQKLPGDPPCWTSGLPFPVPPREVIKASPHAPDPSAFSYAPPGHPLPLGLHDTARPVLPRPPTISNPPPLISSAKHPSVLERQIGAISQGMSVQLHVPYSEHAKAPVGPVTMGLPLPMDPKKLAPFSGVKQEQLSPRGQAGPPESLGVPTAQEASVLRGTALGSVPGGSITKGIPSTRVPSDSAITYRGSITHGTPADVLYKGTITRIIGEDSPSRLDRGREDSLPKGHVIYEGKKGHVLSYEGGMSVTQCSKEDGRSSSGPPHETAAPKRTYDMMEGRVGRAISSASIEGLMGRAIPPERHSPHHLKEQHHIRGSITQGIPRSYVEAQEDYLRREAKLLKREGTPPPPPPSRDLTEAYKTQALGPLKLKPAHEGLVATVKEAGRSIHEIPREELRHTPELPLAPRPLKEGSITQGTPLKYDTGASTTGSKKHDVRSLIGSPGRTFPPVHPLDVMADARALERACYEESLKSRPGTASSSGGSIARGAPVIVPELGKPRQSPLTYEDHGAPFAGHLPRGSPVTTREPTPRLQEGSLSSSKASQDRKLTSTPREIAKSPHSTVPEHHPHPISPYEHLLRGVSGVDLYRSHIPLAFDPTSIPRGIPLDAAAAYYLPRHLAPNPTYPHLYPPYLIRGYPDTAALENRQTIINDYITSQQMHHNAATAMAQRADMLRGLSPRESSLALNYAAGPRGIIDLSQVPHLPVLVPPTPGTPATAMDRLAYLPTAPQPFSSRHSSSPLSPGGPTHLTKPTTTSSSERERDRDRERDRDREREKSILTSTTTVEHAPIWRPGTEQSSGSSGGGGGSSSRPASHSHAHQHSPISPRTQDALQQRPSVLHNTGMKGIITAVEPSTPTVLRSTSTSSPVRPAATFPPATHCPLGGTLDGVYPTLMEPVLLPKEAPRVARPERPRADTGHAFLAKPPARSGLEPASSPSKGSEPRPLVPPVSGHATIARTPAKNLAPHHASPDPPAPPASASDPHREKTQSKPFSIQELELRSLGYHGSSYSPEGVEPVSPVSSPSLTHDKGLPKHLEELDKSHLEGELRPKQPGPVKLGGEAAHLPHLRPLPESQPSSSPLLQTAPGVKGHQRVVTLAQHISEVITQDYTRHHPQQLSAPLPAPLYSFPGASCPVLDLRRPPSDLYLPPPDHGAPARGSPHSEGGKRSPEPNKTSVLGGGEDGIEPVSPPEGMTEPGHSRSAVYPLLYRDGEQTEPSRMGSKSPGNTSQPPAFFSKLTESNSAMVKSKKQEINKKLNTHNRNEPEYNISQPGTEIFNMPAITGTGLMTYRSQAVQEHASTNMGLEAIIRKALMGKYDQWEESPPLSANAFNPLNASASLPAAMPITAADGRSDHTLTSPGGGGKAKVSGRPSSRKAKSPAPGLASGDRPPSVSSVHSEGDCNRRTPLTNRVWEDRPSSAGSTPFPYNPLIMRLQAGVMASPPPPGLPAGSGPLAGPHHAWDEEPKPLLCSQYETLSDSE
Sequence of Polyadenylate-binding protein 1 (P11940 whole entry): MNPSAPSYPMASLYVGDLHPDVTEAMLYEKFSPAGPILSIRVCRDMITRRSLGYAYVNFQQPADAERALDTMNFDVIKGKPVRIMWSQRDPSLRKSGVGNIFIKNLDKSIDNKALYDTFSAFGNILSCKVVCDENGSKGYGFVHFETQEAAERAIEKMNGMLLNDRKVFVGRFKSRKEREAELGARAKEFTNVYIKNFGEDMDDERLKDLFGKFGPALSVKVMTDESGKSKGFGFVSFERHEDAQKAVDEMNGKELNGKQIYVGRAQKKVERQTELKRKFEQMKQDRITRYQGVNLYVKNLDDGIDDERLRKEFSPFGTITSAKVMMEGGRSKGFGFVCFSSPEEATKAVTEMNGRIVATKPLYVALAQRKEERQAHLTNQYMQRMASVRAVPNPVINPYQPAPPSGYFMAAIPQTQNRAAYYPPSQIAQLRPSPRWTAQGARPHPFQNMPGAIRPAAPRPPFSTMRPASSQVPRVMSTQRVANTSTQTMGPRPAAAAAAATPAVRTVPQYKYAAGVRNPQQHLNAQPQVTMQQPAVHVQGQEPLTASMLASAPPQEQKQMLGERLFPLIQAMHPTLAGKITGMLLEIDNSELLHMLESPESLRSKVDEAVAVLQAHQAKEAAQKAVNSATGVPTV
Sequence of Induced myeloid leukemia cell differentiation protein Mcl-1 (Q07820 whole entry): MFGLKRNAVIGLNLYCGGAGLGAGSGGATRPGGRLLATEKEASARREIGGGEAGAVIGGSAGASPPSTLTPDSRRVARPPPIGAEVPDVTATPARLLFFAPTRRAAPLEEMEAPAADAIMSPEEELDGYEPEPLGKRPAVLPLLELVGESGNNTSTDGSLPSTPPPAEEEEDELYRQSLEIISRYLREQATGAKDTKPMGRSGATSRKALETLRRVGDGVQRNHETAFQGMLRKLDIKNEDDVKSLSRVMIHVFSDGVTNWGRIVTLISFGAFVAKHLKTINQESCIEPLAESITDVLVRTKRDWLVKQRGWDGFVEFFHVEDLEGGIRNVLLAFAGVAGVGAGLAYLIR

## COc1cccc2cc(-c3cc(=O)oc4ccc(O)cc34)oc12
[1]
  IC50: 43.1 µM (active)
[2]
  IC50: > 100 µM (inactive)

## Cn1c(=O)[nH]c(=O)c2c1nc(Br)n2C/C=N/Nc1ccccc1
[3]
  IC50: > 50 µM (not active)

## Cc1cc(CC(C)C)n(-c2nc3ccccc3c(=O)n2OCC(N)=O)n1
[4]
  CC50: > 40 µM (active)
[5]
  CC50: > 20 µM (active)
[6]
  CC50: > 40 µM (active)
[7]
  IC50: 8.85 µM (active)

## COc1ccc(C(=O)NNC(=O)C(Cc2ccc(O)cc2)NC(=O)c2ccccc2NC(=O)c2ccc(OC)cc2)cc1 (stereo not drawn)
[8]
  IC50: > 39.8 µM (not active)
[9]
  IC50: > 39.8 µM (not active)

## Cc1cc(C)cc(N2C(=O)C=CC2=O)c1
[10]
  IC50: > 66.6 µM (inactive)
[11]
  AC50: 0.499 µM (active)

## Nc1ccccc1Nc1cc(-c2ccccc2)[nH]n1
[12]
  IC50: > 100 µM (active)
[13]
  EC50: 19.8 µM (active)
[14]
  EC50: 12.1 µM (active)
[15]
  EC50: 14.1 µM (active)

## COc1ccc(NC(=O)CSC2=NCCN2)cc1
[12]
  IC50: > 100 µM (active)

## CCOc1ccc(-n2cc(C(=O)N3CCN(C)CC3)c3cc(OC)c(OC)cc3c2=O)cc1
[16]
  IC50: > 50 µM (not active)

## Cc1cc(C)c(NC(=O)CN(c2ccccc2)S(=O)(=O)N(C)C)c(C)c1
[17]
  IC50: 69.2 µM (inactive)

## CN(C)CCCN1C(=O)C(O)=C(C(=O)c2cc3ccccc3o2)C1c1ccccc1 (stereo not drawn)
[8]
  IC50: 5.04 µM (active)
[18]
  EC50: 4.26 µM (active)
[19]
  EC50: > 79.4 µM (not active)
[9]
  IC50: > 39.8 µM (not active)
[20]
  EC50: 6.07 µM (active)

## CC(=O)n1nc(-c2ccc(C)cc2)nc1NCc1ccco1
[21]
  IC50: 1.82 µM (active)

## Cc1ccc(C(=O)NCC(C)(C)O)cc1
[16]
  IC50: > 50 µM (not active)

## CCOc1cc(C2NC(=O)NC(O)(C(F)(F)F)C2C(=O)c2ccc(Cl)cc2)ccc1O (stereo not drawn)
[21]
  IC50: > 50 µM (not active)

## O=C(NCc1ccco1)C1c2ccccc2Oc2ccccc21
[1]
  IC50: 15.7 µM (active)
[2]
  IC50: 71.3 µM (active)

## Cc1cccc2cc(C(c3nnnn3C(C)(C)C)N(Cc3ccco3)CC3CCCO3)c(=O)[nH]c12 (stereo not drawn)
[17]
  IC50: > 100 µM (inactive)
[22]
  IC50: 13.3 µM (active)

## Cc1ccc(-n2c(=S)[nH]c3c(oc4ccccc43)c2=O)cc1C
[8]
  IC50: 7.61 µM (active)
[9]
  IC50: 4.11 µM (active)

## Cc1cc(NS(=O)(=O)c2ccc(Nc3nc(-c4sc(NC(=O)c5ccccc5)nc4C)cs3)cc2)no1
[23]
  EC50: > 50 µM (active)
[24]
  IC50: 2.46 µM (active)

## COC(=O)Cn1cc(C(=O)c2cccs2)c2ccccc21
[21]
  IC50: > 50 µM (inconclusive)

## C(=N/Nc1nccs1)/c1cccnc1
[23]
  EC50: > 50 µM (active)

## Cc1ccc(C)c(-n2[nH]c3ccccc3c2=O)c1
[25]
  IC50: > 100 µM (inactive)

## COc1ccc(NC(=O)CCc2nc(-c3ccccc3F)no2)cc1
[12]
  IC50: > 100 µM (active)
